Biological target: Carbonic anhydrase 9 (Homo sapiens, UniProt Q16790)
Description: Inhibition of human cloned carbonic anhydrase 9 by CO2 hydration stopped-flow assay

**Q.** With CC1(C)CC(NC(=S)Nc2ccc(S(=O)(=O)Nc3cccc(S(N)(=O)=O)c3)cc2)CC(C)(C)N1[O] as the compound, how does the Ki read?
**A.** 220 nM

**Q.** With CC1(C)CC(NC(=S)Nc2ccc(S(N)(=O)=O)cc2Cl)CC(C)(C)N1[O] as the compound, how does the Ki read?
**A.** 14 nM

**Q.** CC1(C)CC(NC(=S)NCCc2ccc(S(N)(=O)=O)cc2)CC(C)(C)N1[O] was tested. Which Ki did it give?
**A.** 39 nM

**Q.** CC1(C)CC(NC(=S)Nc2ccc(S(=O)(=O)NCc3ccc(S(N)(=O)=O)cc3)cc2)CC(C)(C)N1[O] was tested. Which Ki did it give?
**A.** 7 nM

**Q.** How did the Ki turn out when CC1(C)CC(NC(=S)Nc2ccc(S(N)(=O)=O)cc2F)CC(C)(C)N1[O] was run?
**A.** 22 nM

**Q.** For CC1(C)CC(NC(=S)Nc2ccc(S(=O)(=O)NCCc3ccc(S(N)(=O)=O)cc3)cc2)CC(C)(C)N1[O], which Ki is on record?
**A.** 41 nM

**Q.** CC1(C)CC(NC(=S)NCc2ccc(S(N)(=O)=O)cc2)CC(C)(C)N1[O] was tested. Which Ki did it give?
**A.** 35 nM

**Q.** How did the Ki turn out when CC1(C)CC(NC(=S)Nc2ccc(S(=O)(=O)Nc3ccc(S(N)(=O)=O)cc3)cc2)CC(C)(C)N1[O] was run?
**A.** 30 nM

**Q.** CC1(C)CC(NC(=S)Nc2cccc(S(N)(=O)=O)c2)CC(C)(C)N1[O] was tested. Which Ki did it give?
**A.** 132 nM

Reference: ChEMBL document CHEMBL1145594, “Carbonic anhydrase inhibitors: design of spin-labeled sulfonamides incorporating TEMPO moieties as probes for cytosolic or transmembrane isozymes” (Bioorg Med Chem Lett, 2008)
